Reference: patent publication US7700651B2, “Preparations of phospholipids and pharmaceuticals containing 5-amino salicylic acid for the treatment of inflammatory bowel disease” (The Board of Regents of the University of Texas System, priority 2006, dated 2010)

Experiments:
[1] = system: C57BL/6 mice; test: Induction of colitis in mice by increasing DSS concentrations in drinking water for 4 days; type: in vivo; conditions: 0% to 4% DSS in drinking water, four days
From the text: Groups of four C57BL/6 mice were exposed to differing amount of dextran sodium sulfate (DSS) in their drinking water for a four day period of time. The mice were then euthanized and colon tissue weight per length measurements for each group of mice were made.
Groups of C57BL/6 mice were exposed to differing amount of dextran sodium sulfate (DSS) in their drinking water for a four day period of time. The mice fecal hemoglobin measurements were made at the end of the four day period.

[2] = system: mice placed on 3% DSS in the drinking water to induce colitis; test: DSS-induced colitis in mice, test formulations given in the diet; type: in vivo, C57BL/6 mice; conditions: 3% DSS for four days
Method: Phosal 35 SB, a soy lecithin oil containing approximately 35 wt. % phosphatidylcholine (PC), was placed in glass beaker to which 5ASA (or a 5ASA containing pharmaceutical) was added under moderate heat, about 40° C., and stirring until a 1:1 weight ratio was attained. The resulting oil-based formulation was coated with a pH-sensitive polymer, e.g., MultiSal™, or Eudragrit®-S, to form polymer encapsulated micro-spheres of the 5ASA/PC composition. These encapsulated micro-spheres are formed so that the 5ASA and PC are released only when the drug reaches the distal gut, where the pH is 7 or above and the polymer coating degrades. […]
Groups of C57BL/6 mice were exposed to different diets and their daily food consumption (grams/day) were measured over a four day period of time. […]
Now, the 5ASA:PL formulations can be compared to 5ASA in treating the colitis type disorder in mice. […] The efficacy of the treating compositions were determined by measuring colon tissue weight per length.
Groups of mice were placed on drinking water comprising saline containing 3% DSS for four days to induce a colitis type disorder and then treated with the compositions of this invention. The appearance of blood as indicated by an increased hemoglobin content in the feces was measured to determine the efficacy of 5ASA versus the 5ASA:PL formulations. […]

[3] = system: rats with colitis induced by 4% dextran sodium sulfate (DSS) in drinking water; test: Recovery from DSS-induced colitis in rats, 5ASA 100 mg/kg b.i.d. intragastrically for 6 days; type: in vivo, Sprague Dawley male rats
Method: Rats were placed on drinking water containing 4% dextran sodium sulfate (DSS) for 5 days and 20 hours to induce colitis after which they were returned to normal drinking water. The animals were then intragastrically administered twice daily for 6 subsequent days with: (a) saline (DSS control); (b) 5ASA at a dose of 100 mg/kg; (c) a 1:1 wt. ratio of 5ASA and Phosal 35 SB (an oil-based formulation); or (d) a 1:2 wt. ratio of 5ASA and Phospholipon 90G (an aqueous lipidic suspension) at the same dose of 5ASA, 100 mg/kg, b.i.d. The formulations (c) and (d) are phosphatidylcholine (PC) associated 5ASA formulations, where the PC and 5ASA are associated at the molecular level. These treatments are designed to compare the efficacy of 5ASA and two different PC:5ASA formulations.
At 1, 3 and 6 days, rats were euthanized and colonic tissue, blood and fecal matter were collected for biochemical and histological analyses to assess colonic inflammation and GI bleeding. A separate group of rats were not placed on DSS and served as “normal controls.”
Referring now to FIG. 8, changes in hematocrit during the 6 day recovery period were measured from the euthanized rats. Changes in hematocrit levels represent an indirect estimate of anemia and internal (GI) bleeding among the groups over the 6 day recovery period.
Colonic inflammation and injury were assessed by measuring a number of biochemical and histological indices. First, tissue edema were assessed by measuring tissue wet weight/unit length.
Colonic myeloperoxidase (MPO) activity, a biochemical marker of neutrophil infiltration into the tissue, was measured as another marker of inflammation.
Tissue histology was scored (under blinded conditions) for signs of injury and inflammation. To assess inflammation we scored the number of inflammatory cells in the lamina propia of the colonic submucosa using a scoring system from 1 (normal) to 4 (highly inflamed).
To assess colonic mucosal injury, a histological scoring system was used, where: 0=normal mucosa; 1=surface injury; 2=injury extending into the mid glandular region; 3=injury extending into the deep glandular region; and 4=injury extending into the serosal (muscle) layer.

[4] = system: rats with colitis induced by 4% dextran sodium sulfate (DSS) in drinking water; test: Recovery from DSS-induced colitis in rats, 5ASA 50 mg/kg BID intragastrically for 3 days; type: in vivo, Sprague Dawley male rats
Method: The following experiments were designed to compare the efficacy of 5ASA versus 5ASA:PC formulations in treating rats that had been subjected to colitis induced by adding 4% dextran sodium sulfate (DSS) to their drinking water for over 5 days (5 day, 20 hours) and then returned to normal drinking water. The rats were then treated with 5ASA, in this experiment at a lower dose (50 mg/kg, BID) than that previously studied, in the absence or presence to a PL component for 3 days post DSS induced colitis.
Thirty two healthy male rats used in the study. […] Group 1 were given drinking water without added DSS. Groups 2-4 received drinking water containing 4% DSS for 6 days. At day 6, Group 2 received 1 mL saline BID intra gastrically. Group 3 received 5ASA (50 mg/Kg) BID intra gastrically. Group 4 received 5ASA (50 mg/Kg):Phosal 35SB:MCT oil (1:1:0.3), referred to heretofore as 5ASA:PC BID intra gastrically, where MCT=Medium Chain Triglyceride.
At day 9, the rats were euthanized and the following were measured: (a) hematocrit, (b) fecal hemoglobin, (c) colon weight/length, (d) colon myeloperoxidase (MPO), (e) colonic surface hydrophobicity and (f) colon histology.
In this study, rats were placed on regular drinking water (Group 1) or water containing 4% DSS and then intragastrically administered: saline (Group 2); 5ASA (Group 3) at a dose of 50 mg/kg BID); or 5ASA:PC (P35SB at 1:1 wt ratio) (Group 4) for 3 days at which time the following changes were seen.

| Compound | colonic inflammation or edema as colon tissue weight per length [1] | fecal hemoglobin [1] | colonic inflammation as colon tissue weight per length [2] | overall colonic inflammation and tissue injury / recovery from colitis (biochemical and histological markers, conclusions) ([3]; 100 mg/kg b.i.d., 3 to 6 days post-DSS) | number of inflammatory cells in lamina propia of colonic submucosa, score 1 (normal) to 4 (highly inflamed) ([3]; 3 and 6 days, 100 mg/kg b.i.d.) | tissue edema (tissue wet weight/unit length) ([3]; 3 days post-DSS, 100 mg/kg b.i.d., vs saline-treated controls) | colonic myeloperoxidase (MPO) activity ([3]; day 3, 100 mg/kg b.i.d.) | fecal hemoglobin (fecal blood loss) ([3]; first day of the recovery period, 100 mg/kg b.i.d.) | colon MPO activity (DSS-induced inflammation) ([4]; 50 mg/kg BID, 3 days post DSS) | colon weight/length (DSS-induced mucosal edema) ([4]; 50 mg/kg BID, 3 days post DSS) | fecal hemoglobin (DSS-induced GI fecal blood loss) ([4]; 50 mg/kg BID, 3 days post DSS) | overall recovery from DSS-induced colitis and GI bleeding (conclusion) ([4]; 50 mg/kg twice daily intragastrically) |
| --- | --- | --- | --- | --- | --- | --- | --- | --- | --- | --- | --- | --- |
| dextran sodium sulfate [DSS] | 3% DSS was shown to cause the greatest increase | increased fecal hemoglobin with increasing concentration |  |  |  |  |  |  |  |  |  |  |
| Nc1ccc(O)c(C(=O)O)c1 [5ASA, 5-amino salicylic acid] |  |  | partial reversal | significantly reduces colonic inflammation and tissue injury | reduced number of inflammatory cells | reduced by 5ASA (non significantly) | reduction | may have had a beneficial effect in reducing fecal blood loss | partially | partially reversed | partially reversed | promotes tissue recovery from DSS-induced colitis and reduces GI bleeding |
